Patent publication US20230174649A1, “PHARMACEUTICAL COMPOSITIONS CONTAINING ANTI-CD47 ANTIBODIES” (I-MAB BIOPHARMA US LIMITED, priority 2020, published 2023)
“And” between values parts separate entries of the source, which are not always exact repeats. Equal values may be shown once.

tested on: CD47; assay: FACS analysis of expression level of CD47 on tumor cell surface; format: cell-based, Human; details: Toledo cells, 12 hours, 0.008 uM
Protocol: (§1) For FACS analysis, on the day of analysis (day 1), Toledo cells were seeded into 96 well plate and cultured at a density of 0.2×10^6 cells/well. Then the cells were treated with the selected small molecule therapeutic agents for 12 hours.
(§2) On day 2, cells were harvested, washed twice and then re-suspended in 100 uL FACS buffer subject to FACS analysis. For detection of the expression of calreticulin and CD47, cells were incubated with anti-calreticulin antibody and commercially available anti-CD47 antibody (BD Biosciences, Catalog number: 561249) in dark at 4° C. for 30 mins.
(§3) Then, the cells were subject to FACS analysis. Data was acquired and analyzed.

Question: C[C@H](Nc1ncnc2nc[nH]c12)c1cc2cccc(Cl)c2c(=O)n1-c1ccccc1 [Duvelisib] was tested. Which “Mean Fluorescence Intensity (MFI) CD47” value did it give?
Answer: Its value is 8368.

Question: CC[C@H](Nc1ncnc2[nH]cnc12)c1nc2cccc(F)c2c(=O)n1-c1ccccc1 [Idelalisib] was tested. Which “Mean Fluorescence Intensity (MFI) CD47” value did it give?
Answer: Its value is 8342.

same assay, conditions: Toledo cells, 12 hours, 0.04 uM

Question: How did the “Mean Fluorescence Intensity (MFI) CD47” value turn out when C[C@H](Nc1ncnc2nc[nH]c12)c1cc2cccc(Cl)c2c(=O)n1-c1ccccc1 [Duvelisib] was run?
Answer: The value was 8376.

Question: With CC[C@H](Nc1ncnc2[nH]cnc12)c1nc2cccc(F)c2c(=O)n1-c1ccccc1 [Idelalisib] as the compound, how does the “Mean Fluorescence Intensity (MFI) CD47” value read?
Answer: Its value is 8538.

same assay, conditions: Toledo cells, 12 hours, 0.2 uM

Question: For C[C@H](Nc1ncnc2nc[nH]c12)c1cc2cccc(Cl)c2c(=O)n1-c1ccccc1 [Duvelisib], which “Mean Fluorescence Intensity (MFI) CD47” value is on record?
Answer: The value was 8471.

Question: CC[C@H](Nc1ncnc2[nH]cnc12)c1nc2cccc(F)c2c(=O)n1-c1ccccc1 [Idelalisib] was tested. Which “Mean Fluorescence Intensity (MFI) CD47” value did it give?
Answer: Its value is 8246.

same assay, conditions: Toledo cells, 12 hours, 1 uM

Question: For C[C@H](Nc1ncnc2nc[nH]c12)c1cc2cccc(Cl)c2c(=O)n1-c1ccccc1 [Duvelisib], which “Mean Fluorescence Intensity (MFI) CD47” value is on record?
Answer: The value was 8432.

Question: For CC[C@H](Nc1ncnc2[nH]cnc12)c1nc2cccc(F)c2c(=O)n1-c1ccccc1 [Idelalisib], which “Mean Fluorescence Intensity (MFI) CD47” value is on record?
Answer: Its value is 8465.

same assay, conditions: Toledo cells, 12 hours, 5 uM

Question: For C[C@H](Nc1ncnc2nc[nH]c12)c1cc2cccc(Cl)c2c(=O)n1-c1ccccc1 [Duvelisib], which “Mean Fluorescence Intensity (MFI) CD47” value is on record?
Answer: The value was 8482.

Question: How did the “Mean Fluorescence Intensity (MFI) CD47” value turn out when CC[C@H](Nc1ncnc2[nH]cnc12)c1nc2cccc(F)c2c(=O)n1-c1ccccc1 [Idelalisib] was run?
Answer: The value was 8263.

tested on: Calreticulin; assay: FACS analysis of expression level of calreticulin on tumor cell surface; format: cell-based, Human; details: Toledo cells, 12 hours, 0.008 uM
Protocol: as §1, §2, §3

Question: Which “Mean Fluorescence Intensity (MFI) Calreticulin” value does the source give for C[C@H](Nc1ncnc2nc[nH]c12)c1cc2cccc(Cl)c2c(=O)n1-c1ccccc1 [Duvelisib] here?
Answer: The value was 71.4.

Question: Which “Mean Fluorescence Intensity (MFI) Calreticulin” value does the source give for CC[C@H](Nc1ncnc2[nH]cnc12)c1nc2cccc(F)c2c(=O)n1-c1ccccc1 [Idelalisib] here?
Answer: Its value is 69.4.

same assay, conditions: Toledo cells, 12 hours, 0.04 uM

Question: C[C@H](Nc1ncnc2nc[nH]c12)c1cc2cccc(Cl)c2c(=O)n1-c1ccccc1 [Duvelisib] was tested. Which “Mean Fluorescence Intensity (MFI) Calreticulin” value did it give?
Answer: Its value is 71.2.

Question: With CC[C@H](Nc1ncnc2[nH]cnc12)c1nc2cccc(F)c2c(=O)n1-c1ccccc1 [Idelalisib] as the compound, how does the “Mean Fluorescence Intensity (MFI) Calreticulin” value read?
Answer: Its value is 72.9.

same assay, conditions: Toledo cells, 12 hours, 0.2 uM

Question: With C[C@H](Nc1ncnc2nc[nH]c12)c1cc2cccc(Cl)c2c(=O)n1-c1ccccc1 [Duvelisib] as the compound, how does the “Mean Fluorescence Intensity (MFI) Calreticulin” value read?
Answer: Its value is 71.4.

Question: CC[C@H](Nc1ncnc2[nH]cnc12)c1nc2cccc(F)c2c(=O)n1-c1ccccc1 [Idelalisib] was tested. Which “Mean Fluorescence Intensity (MFI) Calreticulin” value did it give?
Answer: The value was 70.6.

same assay, conditions: Toledo cells, 12 hours, 1 uM

Question: For C[C@H](Nc1ncnc2nc[nH]c12)c1cc2cccc(Cl)c2c(=O)n1-c1ccccc1 [Duvelisib], which “Mean Fluorescence Intensity (MFI) Calreticulin” value is on record?
Answer: Its value is 75.7.

Question: For CC[C@H](Nc1ncnc2[nH]cnc12)c1nc2cccc(F)c2c(=O)n1-c1ccccc1 [Idelalisib], which “Mean Fluorescence Intensity (MFI) Calreticulin” value is on record?
Answer: The value was 77.6.

same assay, conditions: Toledo cells, 12 hours, 5 uM

Question: C[C@H](Nc1ncnc2nc[nH]c12)c1cc2cccc(Cl)c2c(=O)n1-c1ccccc1 [Duvelisib] was tested. Which “Mean Fluorescence Intensity (MFI) Calreticulin” value did it give?
Answer: Its value is 75.9.

Question: With CC[C@H](Nc1ncnc2[nH]cnc12)c1nc2cccc(F)c2c(=O)n1-c1ccccc1 [Idelalisib] as the compound, how does the “Mean Fluorescence Intensity (MFI) Calreticulin” value read?
Answer: Its value is 75.8.

tested on: macrophages; assay: Macrophage Viability Assay (CellTiter-Glo); format: cell-based, Human; details: Cpd 0.002 uM, 16 hours, three replicate lines
Protocol: Then, the monocytes isolated by MACS were subsequently cultured in fresh complete medium supplemented with recombinant human granulocyte-macrophage colony-stimulating factor GM-CSF (50 ng/ml) and human recombinant IL-4 (35 ng/ml) to activate differentiated macrophages. After 6 days of culture (on day 7), cells were harvested, pooled together and counted for next use.
The cells from Example 2 were plated into a 96-well flat bottom plate at a density of 0.05×10^6 cells/well. After 2 hours of incubation, the macrophages were well attached to the plate. Then selected small molecule therapeutic agents were added to the well and cocultured for 16 hours. On day 8, macrophage viability was assessed by CellTiter-Glo® Luminescent Cell Viability Assay, according to the manufacture's instruction.

Question: C[C@H](Nc1ncnc2nc[nH]c12)c1cc2cccc(Cl)c2c(=O)n1-c1ccccc1 [Duvelisib] was tested. Which “Macrophage viability (CellTiter-Glo Luminescent Cell Viability Assay)” value (shortened to “Macrophage viability”) did it give?
Answer: The value was 5688 and 5876 and 6184.

Question: For CC[C@H](Nc1ncnc2[nH]cnc12)c1nc2cccc(F)c2c(=O)n1-c1ccccc1 [Idelalisib], which “Macrophage viability” value is on record?
Answer: Its value is 5888 and 5908 and 5980.

same assay, conditions: Cpd 0.008 uM, 16 hours, three replicate lines

Question: With C[C@H](Nc1ncnc2nc[nH]c12)c1cc2cccc(Cl)c2c(=O)n1-c1ccccc1 [Duvelisib] as the compound, how does the “Macrophage viability” value read?
Answer: Its value is 5484 and 5444 and 5664.

Question: With CC[C@H](Nc1ncnc2[nH]cnc12)c1nc2cccc(F)c2c(=O)n1-c1ccccc1 [Idelalisib] as the compound, how does the “Macrophage viability” value read?
Answer: The value was 6164 and 6056 and 5948.

same assay, conditions: Cpd 0.04 uM, 16 hours, three replicate lines

Question: With C[C@H](Nc1ncnc2nc[nH]c12)c1cc2cccc(Cl)c2c(=O)n1-c1ccccc1 [Duvelisib] as the compound, how does the “Macrophage viability” value read?
Answer: The value was 5228 and 5348 and 5760.

Question: CC[C@H](Nc1ncnc2[nH]cnc12)c1nc2cccc(F)c2c(=O)n1-c1ccccc1 [Idelalisib] was tested. Which “Macrophage viability” value did it give?
Answer: Its value is 6144 and 6304 and 5916.

same assay, conditions: Cpd 0.2 uM, 16 hours, three replicate lines

Question: For C[C@H](Nc1ncnc2nc[nH]c12)c1cc2cccc(Cl)c2c(=O)n1-c1ccccc1 [Duvelisib], which “Macrophage viability” value is on record?
Answer: The value was 5028 and 4984 and 5264.

Question: For CC[C@H](Nc1ncnc2[nH]cnc12)c1nc2cccc(F)c2c(=O)n1-c1ccccc1 [Idelalisib], which “Macrophage viability” value is on record?
Answer: The value was 6040 and 6048 and 6220.

same assay, conditions: Cpd 1 uM, 16 hours, three replicate lines

Question: With C[C@H](Nc1ncnc2nc[nH]c12)c1cc2cccc(Cl)c2c(=O)n1-c1ccccc1 [Duvelisib] as the compound, how does the “Macrophage viability” value read?
Answer: The value was 4592 and 4776 and 4880.

Question: How did the “Macrophage viability” value turn out when CC[C@H](Nc1ncnc2[nH]cnc12)c1nc2cccc(F)c2c(=O)n1-c1ccccc1 [Idelalisib] was run?
Answer: The value was 5376 and 5640 and 5744.

same assay, conditions: Cpd 5 uM, 16 hours, three replicate lines

Question: How did the “Macrophage viability” value turn out when C[C@H](Nc1ncnc2nc[nH]c12)c1cc2cccc(Cl)c2c(=O)n1-c1ccccc1 [Duvelisib] was run?
Answer: Its value is 4464 and 4584 and 4404.

Question: CC[C@H](Nc1ncnc2[nH]cnc12)c1nc2cccc(F)c2c(=O)n1-c1ccccc1 [Idelalisib] was tested. Which “Macrophage viability” value did it give?
Answer: The value was 5092 and 5220 and 5060.

same assay, conditions: Cpd 25 uM, 16 hours, three replicate lines

Question: For C[C@H](Nc1ncnc2nc[nH]c12)c1cc2cccc(Cl)c2c(=O)n1-c1ccccc1 [Duvelisib], which “Macrophage viability” value is on record?
Answer: The value was 4176 and 4276 and 4156.

Question: CC[C@H](Nc1ncnc2[nH]cnc12)c1nc2cccc(F)c2c(=O)n1-c1ccccc1 [Idelalisib] was tested. Which “Macrophage viability” value did it give?
Answer: Its value is 4508 and 4884 and 4908.

same assay, conditions: Cpd 50 uM, 16 hours, three replicate lines

Question: C[C@H](Nc1ncnc2nc[nH]c12)c1cc2cccc(Cl)c2c(=O)n1-c1ccccc1 [Duvelisib] was tested. Which “Macrophage viability” value did it give?
Answer: Its value is 3972 and 3992 and 3860.

Question: With CC[C@H](Nc1ncnc2[nH]cnc12)c1nc2cccc(F)c2c(=O)n1-c1ccccc1 [Idelalisib] as the compound, how does the “Macrophage viability” value read?
Answer: Its value is 4404 and 4648 and 4964.

same assay, conditions: dose of 0.1-50 μM

Question: With C[C@H](Nc1ncnc2nc[nH]c12)c1cc2cccc(Cl)c2c(=O)n1-c1ccccc1 [Duvelisib] as the compound, how does the “toxicity to macrophages” value read?
Answer: Its value is “obvious toxicity”.

Question: With CC[C@H](Nc1ncnc2[nH]cnc12)c1nc2cccc(F)c2c(=O)n1-c1ccccc1 [Idelalisib] as the compound, how does the “toxicity to macrophages” value read?
Answer: Its value is “obvious toxicity”.
